Source: publication PMC9635468, “Biological evaluation, docking studies, and in silico ADME prediction of some pyrimidine and pyridine derivatives as potential EGFR^WT and EGFR^T790M inhibitors” (Journal of Enzyme Inhibition and Medicinal Chemistry, 2022)
Values after ≈ are worked out from the molar mass of the structure shown.

Assays:
PI3Kd = tested on: PI3Kd; set-up: method as in PMID 29631787; conditions: inhibitory potential against PI3Kd; cited from earlier work
FADU = experiment: Cytotoxicity screening, SRB assay, FADU; type: cell-based, human; conditions: 48 h; for IC50: Homo sapiens, FaDu
Description: (§1) In this study, a panel of cell lines was examined for their chemosensitivity. Different concentrations of the synthesised pyridines and pyrimidine derivatives were used in this study (5, 12.5, 25, and 50 µg/mL) for all the examined cell lines. In this study, breast tumour cell line (MCF7), hepatocellular carcinoma cell line (HEPG2), larynx cell line (HEP2), lung cancer cell line (H460), colon cancer cell line (HCT116 and Caco2), hypopharyngeal cell line (FADU), and normal Vero cell line were applied. The full methodology is described in the Supplementary data (SI 1).
(§2) SI 1: Cytotoxicity screening against human cancer cell lines
(§3) In this study, a panel of cell lines was examined for their chemosensitivity. Different concentrations of the synthesized pyridines and pyrimidines derivatives were used in this study (5, 12.5, 25, and 50 µg/ml) for all the examined cell lines. The most sensitive cell line to the treatment regimen was selected and subjected to further investigations to explore the mechanism of this interaction. Human breast tumor cell line (MCF7), human hepatocellular carcinoma cell line (HEPG2), human larynx cell line (HEP2), human lung cancer cell line (H460), human colon cancer cell line (HCT116 and Caco2), human hypopharyngeal cell line (FaDu), and normal cell line Vero were used in this study. It was obtained from the American Type Culture Collection (ATCC, Minnesota, USA). The tumor cell line was maintained at National Cancer Institute (NCI), Cairo, Egypt.
(§4) The antitumor activities of pyridines and pyrimidines derivatives and all tested cell lines were evaluated by sulphorhodamine-B (SRB) assay 1. Briefly, cells were seeded at a density of 3 × 10^3 cells/well in 96-well microtiter plates. They were left to attach for 24 h before incubation with drugs. Next, cells were treated with different concentrations of 5, 12.5, 25, and 50 µg/ml for MCF7, HEPG2, HEP2, HCT116, Caco2, H460, FaDu, and Vero cells. For each concentration, three wells were used and incubation was continued for 48 h. DMSO was used as a control vehicle (1 % v/v). At the end of incubation, cells were fixed with 20 % trichloroacetic acid and stained with 0.4 % SRB dye. The optical density (O.D.) of each well was measured spectrophotometrically at 570 nm using an ELISA microplate reader (TECAN sunrise™, Germany). The mean survival fraction at each drug concentration was calculated as follows: […]
(§5) O.D. of the treated cells/O.D. of the control cells. The IC50 (concentration that produces 50% of cell growth inhibition) value of each drug was calculated using sigmoidal dose-response curve-fitting models (Graph Pad Prizm software, version 5) 1.

T47D = experiment: Cytotoxicity screening, SRB assay, T47D; type: cell-based, human; conditions: 48 h; for IC50: Homo sapiens, T47D
CaCo2 = experiment: Cytotoxicity screening, SRB assay, CaCo2; type: cell-based, human; conditions: for IC50: Homo sapiens, Caco-2, 48 h
Description: as §1, §2, §3, §4, §5

HCT116 = experiment: Cytotoxicity screening, SRB assay, HCT116; type: cell-based, human; conditions: for IC50: Homo sapiens, HCT-116, 48 h
Description: as §1, §2, §3, §4, §5

VERO = experiment: Cytotoxicity screening, SRB assay, normal Vero cells; type: cell-based; conditions: 48 h, normal cell line; for IC50: Chlorocebus sabaeus, Vero
Description: as §1, §2, §3, §4, §5

MCF7 = experiment: Cytotoxicity screening, SRB assay, MCF7; type: cell-based, human; conditions: for IC50: Homo sapiens, MCF7, 48 h
Description: as §1, §2, §3, §4, §5

H460 = experiment: Cytotoxicity screening, SRB assay, H460; type: cell-based, human; conditions: for IC50: Homo sapiens, NCI-H460, 48 h
Description: as §1, §2, §3, §4, §5

HEPG2 = experiment: Cytotoxicity screening, SRB assay, HEPG2; type: cell-based, human; conditions: for IC50: Homo sapiens, HepG2, 48 h
Description: as §1, §2, §3, §4, §5

HEP2 = experiment: Cytotoxicity screening, SRB assay, HEP2; type: cell-based, human; conditions: for IC50: Homo sapiens, HEp-2, 48 h
Description: as §1, §2, §3, §4, §5

NF-kB = tested on: NF-kB; set-up: method as in PMID 25108361; conditions: inhibitory potential against NF-kB; cited from earlier work

Structure (SMILES)	IC50 (FADU)	IC50 (T47D)	IC50 (CaCo2)	IC50 (HCT116)	IC50 (VERO)	IC50 (MCF7)	IC50 (H460)	IC50 (HEPG2)	IC50 (HEP2)	further results
COc1ncc(-c2cc(NC(=O)c3coc(CN4CCN(C(C)C)CC4)n3)c3cnn(C)c3n2)cc1NS(C)(=O)=O [Compound I]	–	–	–	–	–	–	–	–	–	IC50 (PI3Kd): 0.0084 µM
N#Cc1c(-c2cccs2)cc(-c2ccco2)nc1NN [Compound 17]	10.5 µg/mL (≈ 37.2 µM)	4.9 µg/mL (≈ 17.4 µM)	24 µg/mL (≈ 85 µM)	19.3 µg/mL (≈ 68.4 µM)	16.5 µg/mL (≈ 58.4 µM)	34 µg/mL (≈ 120 µM)	12.7 µg/mL (≈ 45 µM)	4.9 µg/mL (≈ 17.4 µM)	24 µg/mL (≈ 85 µM)	–
N#Cc1c(-c2cccs2)cc(-c2ccco2)nc1OCC(=O)NN [Compound 19]	20.5 µg/mL (≈ 60.2 µM)	32 µg/mL (≈ 94 µM)	10.8 µg/mL (≈ 31.7 µM)	–	36 µg/mL (≈ 106 µM)	39.5 µg/mL (≈ 116 µM)	41.5 µg/mL (≈ 122 µM)	24.2 µg/mL (≈ 71.1 µM)	43.5 µg/mL (≈ 128 µM)	–
COc1cccc2c1C(=O)c1c(O)c3c(c(O)c1C2=O)C[C@@](O)(C(=O)CO)C[C@@H]3O[C@H]1C[C@H](N)[C@H](O)[C@H](C)O1 [DOX, reference compound]	–	–	–	–	–	–	–	–	–	FADU IC50 (FADU): 7.00 µg/mL; T47D IC50 (T47D): 4.00 µg/mL; CaCo2 IC50 (CaCo2; 48 h): 6.00 µg/mL; HCT116 IC50 (HCT116; 48 h): 5.50 µg/mL; VERO IC50 (VERO): 23.00 µg/mL; MCF7 IC50 (MCF7; 48 h): 4.50 µg/mL; H460 IC50 (H460; 48 h): 6.50 µg/mL; HEPG2 IC50 (HEPG2; 48 h): 4.58 µg/mL; HEP2 IC50 (HEP2; 48 h): 5.60 µg/mL
N#Cc1c(-c2cccs2)cc(-c2ccco2)nc1OCC(=O)N/N=C1/C(=O)Nc2ccccc21 [Compound 21]	10.9 µg/mL (≈ 23.2 µM)	17 µg/mL (≈ 36.2 µM)	34 µg/mL (≈ 72.4 µM)	–	38.2 µg/mL (≈ 81.4 µM)	9.5 µg/mL (≈ 20.2 µM)	23.3 µg/mL (≈ 49.6 µM)	5 µg/mL (≈ 10.7 µM)	19.8 µg/mL (≈ 42.2 µM)	–
N#Cc1c(-c2cccs2)cc(-c2ccco2)nc1Cl [Compound 15]	17.5 µg/mL (≈ 61 µM)	49.4 µg/mL (≈ 172 µM)	23.5 µg/mL (≈ 82 µM)	22 µg/mL (≈ 76.7 µM)	21.5 µg/mL (≈ 75 µM)	14.7 µg/mL (≈ 51.3 µM)	21 µg/mL (≈ 73.2 µM)	12 µg/mL (≈ 41.8 µM)	36.8 µg/mL (≈ 128 µM)	–
CC1Cc2cnc3[nH]nc(N)c3c2-c2ccccc21 (stereo not shown) [Compound IV]	–	–	–	–	–	–	–	–	–	IC50 (NF-kB): 4.7 µM
Nc1n[nH]c2ncc3c(c12)-c1ccccc1CC3 [Compound V]	–	–	–	–	–	–	–	–	–	IC50 (NF-kB): 6.9 µM
N#Cc1c(-c2cccs2)cc(-c2ccco2)nc1-c1c[nH]c2ccccc12 [Compound 13]	15.9 µg/mL (≈ 43.3 µM)	21 µg/mL (≈ 57.2 µM)	–	44.3 µg/mL (≈ 121 µM)	–	7.8 µg/mL (≈ 21.2 µM)	–	8.6 µg/mL (≈ 23.4 µM)	4.8 µg/mL (≈ 13.1 µM)	–
